According to patent US8399497B2, “Thiazole derivatives and use thereof” (Merck Serono SA, priority 2005, dated 2013):
Read-outs that look alike come from different tables or passages of the source.

How the values were obtained:
[1] = molecular target: Human recombinant GST-PI3Kγ (Homo sapiens, UniProt P48736); test: High throughput PI3K lipid kinase assay (SPA, neomycin-coated beads); type: biochemical
Excerpt: a) High Throughput PI3K Lipid Kinase Assay (Binding Assay):
The efficacy of compounds of the invention in inhibiting the PI3K induced-lipid phosphorylation may be tested in the following binding assay.
The assay combines the scintillation proximity assay technology (SPA, Amersham) with the capacity of neomycin (a polycationic antibiotic) to bind phospholipids with high affinity and specificity. The Scintillation Proximity Assay is based on the properties of weakly emitting isotopes (such as ^3H, ^125I, ^33P). Coating SPA beads with neomycin allows the detection of phosphorylated lipid substrates after incubation with recombinant PI3K and radioactive ATP in the same well, by capturing the radioactive phospholipids to the SPA beads through their specific binding to neomycin.
To a 384 wells MTP containing 5 μl of the test compound of Formula (I) (solubilized in 6% DMSO; to yield a concentration of 100, 30, 10, 3, 1, 0.3, 0.1, 0.03, 0.01, 01 μM of the test compound), the following assay components are added. 1) 5 μl (58 ng) of Human recombinant GST-PI3Kγ (in Hepes 40 mM, pH 7.4, DTT 1 mM and ethylenglycol 5%) 2) 10 μl of lipid micelles and 3) 10 μl of Kinase buffer ([^33P]γ-ATP 45 μM/60 nCi, MgCl2 30 mM, DTT 1 mM, β-Glycerophosphate 1 mM, Na3VO4 100 μM, Na Cholate 0.3%, in Hepes 40 mM, pH 7.4). After incubation at room temperature for 180 minutes, with gentle agitation, the reaction is stopped by addition of 60 μl of a solution containing 100 μg of neomycin-coated PVT SPA beads in PBS containing ATP 10 mM and EDTA 5 mM. The assay is further incubated at room temperature for 60 minutes with gentle agitation to allow binding of phospholipids to neomycin-SPA beads. After precipitation of the neomycin-coated PVT SPA beads for 5 minutes at 1500×g, radioactive PtdIns(3)P is quantified by scintillation counting in a Wallac MicroBeta™ plate counter.
The values indicated in Table II below refer to the IC50 (μM) with respect to PI3Kγ, i.e. the amount necessary to achieve 50% inhibition of said target. Said values show a considerable inhibitory potency of thiazole compounds with regard to PI3Kγ.

[2] = system: PI3K induced Akt/PKB phosphorylation in Raw 264-7 macrophages; test: Cell based ELISA of Akt/PKB phosphorylation in macrophages after Complement 5a stimulation; settings: Mus musculus, RAW264.7, 5 min, 50 nM Complement 5a for 5 minutes, read-out: Cell Assay (P-Akt, Elisa) IC50
Procedure: b) Cell Based ELISA to Monitor PI3K Inhibition:
The efficacy of compounds of the invention in inhibiting the PI3K induced Akt/PKB phosphorylation may be tested in the following cell based assay.
Measurement of Akt/PKB phosphorylation in macrophages after stimulation with Complement 5a: Raw 264: Raw 264-7 macrophages (cultured in DMEM-F12 medium containing 10% Fetal Calf serum and antibiotics) are plated at 20,000 cells/well in a 96 MTP 24 h before cell stimulation. Prior to the stimulation with 50 nM of Complement 5a during 5 minutes, Cells are serum starved for 2 h, and pretreated with inhibitors for 20 minutes. After stimulation cells are fixed in 4% formaldehyde for 20 minutes and washed 3 times in PBS containing 1% Triton X-100 (PBS/Triton). Endogenous peroxidase is blocked by a 20 minutes incubation in 0.6% H2O2 and 0.1% Sodium Azide in PBS/Triton and washed 3 times in PBS/Triton. Cells are then blocked by 60 minutes incubation with 10% fetal calf serum in PBS/Triton. Next, phosphorylated Akt/PKB is detected by an overnight incubation at 4° C. with primary antibody (anti phospho Serine 473 Akt IHC, Cell Signaling) diluted 800-fold in PBS/Triton, containing 5% bovine serum albumin (BSA). After 3 washes in PBS/Triton, cells are incubated for 60 minutes with a peroxidase conjugated goat-anti-rabbit secondary antibody (1/400 dilution in PBS/Triton, containing 5% BSA), washed 3 times in PBS/Triton, and 2 times in PBS and further incubated in 100 μl of luminescent substrate reagent solution (Pierce) for 2 minutes, followed by the reading (1 s/well).
The values indicated in Table III below reflect the percentage of inhibition of AKT phoshorylation as compared to basal level. Said values show a clear effect of the thiazole compounds on the activation of AKT phosphorylation in macrophages.

[3] = system: Neutrophil recruitment; test: Thioglycollate-induced peritoneal cavity cell recruitment model, neutrophils; type: in vivo, C3H mice; settings: 10 mg/kg orally, lavage 4 h after thioglycollate
Procedure: (§1) Thioglycollate-Induced Pertioneal Cavity Cell Recruitment Model
(§2) The in vivo efficacy of compounds of the invention in inhibiting the migration of leukocytes upon intraperitoneal challenge of thioglycollate may be tested with the following assay.
(§3) 8-10 weeks old female C3H mice are fasted during 18 hours. 15 minutes prior the intraperitoneal injection of thioglycollate (1.5%, 40 ml/kg), the mice are treated orally with Thiazoles of Formula (I). Control mice receive CMC/Tween as vehicle (10 ml/kg). The mice are then sacrificed by CO2 inhalation and the peritoneal cavity is washed two times with 5 ml of ice-cold PBS/1 mM EDTA. The lavages are done 4 hours or 48 hours after thioglycollate challenge to evaluate neutrophils or macrophages recruitment, respectively. The white blood cells (neutrophils, lymphocytes or macrophages) are counted using a Beckman Coulter® A ^cT 5diff™. Dexamethasone is used as reference drug.

[4] = system: Macrophage recruitment; test: Thioglycollate-induced peritoneal cavity cell recruitment model, macrophages; type: in vivo, C3H mice; settings: 10 mg/kg orally, lavage 48 h after thioglycollate
Procedure: as §1, §2, §3

[5] = system: Collagen-induced arthritis; test: Collagen-induced arthritis, CIA (mouse); type: in vivo, DBA/1 mice; settings: twice a day, 7 days

Human recombinant GST-PI3Kγ, sequence (P48736 whole entry): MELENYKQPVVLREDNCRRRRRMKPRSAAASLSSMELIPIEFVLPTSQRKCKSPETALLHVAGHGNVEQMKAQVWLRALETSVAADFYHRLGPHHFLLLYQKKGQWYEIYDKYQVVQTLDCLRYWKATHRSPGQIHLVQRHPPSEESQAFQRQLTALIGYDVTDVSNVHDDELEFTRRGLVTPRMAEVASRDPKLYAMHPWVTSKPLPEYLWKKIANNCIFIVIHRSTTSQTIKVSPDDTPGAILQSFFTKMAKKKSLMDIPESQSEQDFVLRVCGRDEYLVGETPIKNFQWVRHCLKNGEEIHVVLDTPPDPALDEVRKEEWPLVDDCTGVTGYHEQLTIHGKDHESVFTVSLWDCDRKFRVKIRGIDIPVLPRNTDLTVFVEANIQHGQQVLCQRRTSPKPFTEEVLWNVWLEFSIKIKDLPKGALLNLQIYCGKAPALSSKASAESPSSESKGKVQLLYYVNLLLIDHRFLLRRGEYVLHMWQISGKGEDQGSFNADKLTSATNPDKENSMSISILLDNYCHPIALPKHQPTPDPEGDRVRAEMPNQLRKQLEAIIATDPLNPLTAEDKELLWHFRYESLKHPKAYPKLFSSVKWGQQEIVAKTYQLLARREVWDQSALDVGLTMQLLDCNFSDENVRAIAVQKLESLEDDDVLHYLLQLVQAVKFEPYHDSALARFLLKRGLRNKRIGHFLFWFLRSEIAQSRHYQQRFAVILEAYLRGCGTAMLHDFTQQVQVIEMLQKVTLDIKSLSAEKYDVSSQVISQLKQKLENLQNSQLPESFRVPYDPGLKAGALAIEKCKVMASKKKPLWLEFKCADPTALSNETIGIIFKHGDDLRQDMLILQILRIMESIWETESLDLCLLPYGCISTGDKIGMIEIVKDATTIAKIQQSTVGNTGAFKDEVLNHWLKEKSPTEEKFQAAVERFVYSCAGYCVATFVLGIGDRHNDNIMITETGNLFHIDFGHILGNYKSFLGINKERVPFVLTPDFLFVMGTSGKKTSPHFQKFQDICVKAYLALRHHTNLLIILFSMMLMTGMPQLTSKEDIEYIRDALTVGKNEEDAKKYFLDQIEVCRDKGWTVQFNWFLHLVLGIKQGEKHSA

| IC50 [1] [nM] | IC50 [2] [nM] | IC50 ([2]; re-testing) [nM] | Compound | % inhibition of Neutrophil recruitment at 10 mg/kg after 4 h [3] [%] | % inhibition of Macrophage recruitment at 10 mg/kg after 48 h [4] [%] | Reduction of total clinical score [%] ([5]; 10 mg/kg orally) | Reduction of total clinical score [%] ([5]; 30 mg/kg orally) | Reduction of total clinical score [%] ([5]; 60 mg/kg orally) |
| --- | --- | --- | --- | --- | --- | --- | --- | --- |
| 14 | 50 | 320 | CC(=O)Nc1nc(C)c(-c2csc(S(=O)(=O)N3CCC(O)CC3)c2)s1 [Example 39, N-(5-{5-[(4-hydroxypiperidin-1-yl)sulfonyl]-3-thienyl}-4-methyl-1,3-thiazol-2-yl)acetamide] | 48 | 43 | 30 | 50 | 75 |
| 27 | > 30000 | – | CC(=O)Nc1nc(C)c(-c2csc(S(=O)(=O)N3CCOCC3)c2)s1 [Example 46, N-{4-methyl-5-[5-(morpholin-4-ylsulfonyl)-3-thienyl]-1,3-thiazol-2-yl}acetamide] | 36 | – | – | – | – |
| – | 150 | – | CC(=O)Nc1nc(C)c(-c2csc(S(=O)(=O)N3CCCC(O)C3)c2)s1 (centres unmarked) [Example 48, N-(5-{5-[(3-hydroxypiperidin-1-yl)sulfonyl]-3-thienyl}-4-methyl-1,3-thiazol-2-yl)acetamide] | – | – | – | – | – |

The remaining lines, values behind:

| Compound | IC50 [1] [nM] | IC50 [2] [nM] | IC50 ([2]; re-testing) [nM] | % inhibition of Neutrophil recruitment at 10 mg/kg after 4 h [3] [%] | % inhibition of Macrophage recruitment at 10 mg/kg after 48 h [4] [%] | Reduction of total clinical score [%] ([5]; 10 mg/kg orally) | Reduction of total clinical score [%] ([5]; 30 mg/kg orally) | Reduction of total clinical score [%] ([5]; 60 mg/kg orally) |
| --- | --- | --- | --- | --- | --- | --- | --- | --- |
| C#CCNS(=O)(=O)c1ccc(-c2sc(NC(C)=O)nc2C)s1 [Example 1, N-(4-methyl-5-{5-[(prop-2-yn-1-ylamino)sulfonyl]-2-thienyl}-1,3-thiazol-2-yl)acetamide] | 119 | 660 | – | – | – | – | – | – |
| CC(=O)Nc1nc(C)c(-c2ccc(S(=O)(=O)NCCN3CCOCC3)s2)s1 [Example 9, N-[4-methyl-5-(5-{[(2-morpholin-4-ylethyl)amino]sulfonyl}-2-thienyl)-1,3-thiazol-2-yl]acetamide] | 158 | 850 | – | 48 | – | – | – | – |
| CC(=O)Nc1nc(C)c(-c2ccc(S(=O)(=O)NCCCN(C)C)s2)s1 [Example 10, N-{5-[5-({[3-(dimethylamino)propyl]amino}sulfonyl)-2-thienyl]-4-methyl-1,3-thiazol-2-yl}acetamide] | 289 | 1290 | – | 58 | – | – | – | – |
| CC(=O)Nc1nc(C)c(-c2csc(S(=O)(=O)NCCN(C)C)c2)s1 [Example 23, N-{5-[5-({[2-(dimethylamino)ethyl]amino}sulfonyl)-3-thienyl]-4-methyl-1,3-thiazol-2-yl}acetamide] | 28 | 480 | – | – | – | – | – | – |
| CC(=O)Nc1nc(C)c(-c2csc(S(=O)(=O)NC3CCN(C)CC3)c2)s1 [Example 28, N-[4-methyl-5-(5-{[(1-methylpiperidin-4-yl)amino]sulfonyl}-3-thienyl)-1,3-thiazol-2-yl]acetamide] | 78 | – | – | – | – | – | – | – |
| CC(=O)Nc1nc(C)c(-c2csc(S(=O)(=O)N3CCN(C)CC3)c2)s1 [Example 29, N-(4-methyl-5-{5-[(4-methylpiperazin-1-yl)sulfonyl]-3-thienyl}-1,3-thiazol-2-yl)acetamide] | 28 | 460 | – | 28 | – | – | – | – |
